Tested on: Mitochondria-located protein genes
Assay: DNA chip mRNA expression in yeast, mitochondria-located protein genes (Table 2)
Format: cell-based, Saccharomyces cerevisiae S288C
Details: cells incubated two hours with the chemical substance
Summary of the method: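 Chemical exposure: 2 h, log-phase S. cerevisiae S288C, YPD, 25° C., dose set to inhibit growth without death. Profiling: mRNA labeled by reverse transcription with Cy3- or Cy5-dUTP, hybridized to whole-genome array. Output: fluorescence ratio against untreated culture.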

CN(C)C(=S)SSC(=S)N(C)C [(10), Tetramethylthiuram disulfide]
The level of expressed mRNA in the presence of chemical substance/The level of expressed mRNA in the absence of chemical substance (yeast gene YAL039C): 2.2
The level of expressed mRNA in the presence of chemical substance/The level of expressed mRNA in the absence of chemical substance (yeast gene YBL022C): 1.2
The level of expressed mRNA in the presence of chemical substance/The level of expressed mRNA in the absence of chemical substance (yeast gene YBL030C): 0.9
The level of expressed mRNA in the presence of chemical substance/The level of expressed mRNA in the absence of chemical substance (yeast gene YBL038W): 1.5
The level of expressed mRNA in the presence of chemical substance/The level of expressed mRNA in the absence of chemical substance (yeast gene YBL099W): 0.7
The level of expressed mRNA in the presence of chemical substance/The level of expressed mRNA in the absence of chemical substance (yeast gene YBR003W): 1.3
The level of expressed mRNA in the presence of chemical substance/The level of expressed mRNA in the absence of chemical substance (yeast gene YBR044C): 1.2
The level of expressed mRNA in the presence of chemical substance/The level of expressed mRNA in the absence of chemical substance (yeast gene YBR091C): 1.6
The level of expressed mRNA in the presence of chemical substance/The level of expressed mRNA in the absence of chemical substance (yeast gene YBR122C): 1.4
The level of expressed mRNA in the presence of chemical substance/The level of expressed mRNA in the absence of chemical substance (yeast gene YBR185C): 1.6
The level of expressed mRNA in the presence of chemical substance/The level of expressed mRNA in the absence of chemical substance (yeast gene YBR221C): 1.3
The level of expressed mRNA in the presence of chemical substance/The level of expressed mRNA in the absence of chemical substance (yeast gene YBR251W): 1.1
The level of expressed mRNA in the presence of chemical substance/The level of expressed mRNA in the absence of chemical substance (yeast gene YBR282W): 0.9
The level of expressed mRNA in the presence of chemical substance/The level of expressed mRNA in the absence of chemical substance (yeast gene YCL057W): 2.1
The level of expressed mRNA in the presence of chemical substance/The level of expressed mRNA in the absence of chemical substance (yeast gene YCR046C): 1.4
The level of expressed mRNA in the presence of chemical substance/The level of expressed mRNA in the absence of chemical substance (yeast gene YCR083W): 1.8
The level of expressed mRNA in the presence of chemical substance/The level of expressed mRNA in the absence of chemical substance (yeast gene YDL067C): 0.9
The level of expressed mRNA in the presence of chemical substance/The level of expressed mRNA in the absence of chemical substance (yeast gene YDL181W): 0.8
The level of expressed mRNA in the presence of chemical substance/The level of expressed mRNA in the absence of chemical substance (yeast gene YDL198C): 2.7
The level of expressed mRNA in the presence of chemical substance/The level of expressed mRNA in the absence of chemical substance (yeast gene YDR079W): 0.8
The level of expressed mRNA in the presence of chemical substance/The level of expressed mRNA in the absence of chemical substance (yeast gene YDR178W): 0.8
The level of expressed mRNA in the presence of chemical substance/The level of expressed mRNA in the absence of chemical substance (yeast gene YDR231C): 1.4
The level of expressed mRNA in the presence of chemical substance/The level of expressed mRNA in the absence of chemical substance (yeast gene YDR258C): 13.3
The level of expressed mRNA in the presence of chemical substance/The level of expressed mRNA in the absence of chemical substance (yeast gene YDR298C): 1.6
The level of expressed mRNA in the presence of chemical substance/The level of expressed mRNA in the absence of chemical substance (yeast gene YDR347W): 1.6
The level of expressed mRNA in the presence of chemical substance/The level of expressed mRNA in the absence of chemical substance (yeast gene YDR377W): 0.9
The level of expressed mRNA in the presence of chemical substance/The level of expressed mRNA in the absence of chemical substance (yeast gene YDR529C): 0.6
The level of expressed mRNA in the presence of chemical substance/The level of expressed mRNA in the absence of chemical substance (yeast gene YEL024W): 0.6
The level of expressed mRNA in the presence of chemical substance/The level of expressed mRNA in the absence of chemical substance (yeast gene YEL039C): 1.2
The level of expressed mRNA in the presence of chemical substance/The level of expressed mRNA in the absence of chemical substance (yeast gene YER178W): 1.3
The level of expressed mRNA in the presence of chemical substance/The level of expressed mRNA in the absence of chemical substance (yeast gene YFL016C): 2.9
The level of expressed mRNA in the presence of chemical substance/The level of expressed mRNA in the absence of chemical substance (yeast gene YGL018C): 1.4
The level of expressed mRNA in the presence of chemical substance/The level of expressed mRNA in the absence of chemical substance (yeast gene YGL187C): 0.6
The level of expressed mRNA in the presence of chemical substance/The level of expressed mRNA in the absence of chemical substance (yeast gene YGL191W): 1.3
The level of expressed mRNA in the presence of chemical substance/The level of expressed mRNA in the absence of chemical substance (yeast gene YGR008C): 2.4
The level of expressed mRNA in the presence of chemical substance/The level of expressed mRNA in the absence of chemical substance (yeast gene YGR028W): 2.0
The level of expressed mRNA in the presence of chemical substance/The level of expressed mRNA in the absence of chemical substance (yeast gene YGR062C): 1.4
The level of expressed mRNA in the presence of chemical substance/The level of expressed mRNA in the absence of chemical substance (yeast gene YGR076C): 1.8
The level of expressed mRNA in the presence of chemical substance/The level of expressed mRNA in the absence of chemical substance (yeast gene YGR082W): 0.9
The level of expressed mRNA in the presence of chemical substance/The level of expressed mRNA in the absence of chemical substance (yeast gene YGR174C): 0.7
The level of expressed mRNA in the presence of chemical substance/The level of expressed mRNA in the absence of chemical substance (yeast gene YGR244C): 1.1
The level of expressed mRNA in the presence of chemical substance/The level of expressed mRNA in the absence of chemical substance (yeast gene YHR008C): 2.4
The level of expressed mRNA in the presence of chemical substance/The level of expressed mRNA in the absence of chemical substance (yeast gene YIL155C): 2.9
The level of expressed mRNA in the presence of chemical substance/The level of expressed mRNA in the absence of chemical substance (yeast gene YJL096W): 1.4
The level of expressed mRNA in the presence of chemical substance/The level of expressed mRNA in the absence of chemical substance (yeast gene YJL102W): 2.2
The level of expressed mRNA in the presence of chemical substance/The level of expressed mRNA in the absence of chemical substance (yeast gene YJL133W): 1.4
The level of expressed mRNA in the presence of chemical substance/The level of expressed mRNA in the absence of chemical substance (yeast gene YJL166W): 1.2
The level of expressed mRNA in the presence of chemical substance/The level of expressed mRNA in the absence of chemical substance (yeast gene YJL180C): 1.4
The level of expressed mRNA in the presence of chemical substance/The level of expressed mRNA in the absence of chemical substance (yeast gene YJR045C): 3.0
The level of expressed mRNA in the presence of chemical substance/The level of expressed mRNA in the absence of chemical substance (yeast gene YJR077C): 0.7

Source: patent publication US8192962B2, “Processes for detecting toxic substances” (Daikin Industries, Ltd., priority 2001, dated 2012)
